Counter-ions that a name gives are not always drawn.
Experiments:
PARP1 = PARP1 (Homo sapiens, UniProt P09874); experiment: PARP1 fluorescence polarization binding assay; conditions: binding IC50, GST-tagged PARP1 20 nM, PARPi-FL 3 nM
Description: Compounds of the present disclosure were tested in a PARP1 fluorescence polarization binding assay at Pharmaron (Beijing, P.R.China). In this biochemical assay, binding of test compound to recombinant human PARP1 reduces the amount of binding of a fluorescent probe, and consequently reduces the detected level of fluorescence polarization. Test compound stock solutions were prepared in DMSO and then serially diluted into 10 concentrations by 3-fold dilution in a 384-well plate using a TECAN EVO200. 60 nL of each dilution was transferred to the plate using an Echo550 (Labcyte), and then 10 μL 40 nM GST-tagged PARP1 (BPS Bioscience, Cat #80501), diluted in assay buffer (50 mM Tris pH 8.0, 0.001% Triton X-100, 10 mM MgCl2, 150 mM NaCl), was added to the plate. After a centrifugation at 1000 rpm for 1 min, the assay plate was incubated for 30 min at RT. 10 μL 6 nM PARPi-FL (TOCRIS, Cat #6461), diluted using assay buffer, was then added to the plate. The final concentrations of PARP1 and PARPi-FL were 20 nM and 3 nM, respectively, in a total volume of 20 μL. After a centrifugation at 1000 rpm for 1 min, the assay plate was incubated for 4 h at RT. Samples in each well were read using an Envision instrument (Perkin-Elmer; Ex=480 nm Em=FITC FP-P pol 535 nm & FITC FP-S pol 535 nm). Percent inhibition was calculated from mP values using Inhibition (%)=[1−(mPc−mPL)/(mPH−mPL)]×100%, where mPc, mPL, and mPH are the mP values of test compound, Low controls, and High controls, respectively. Binding IC50 values were calculated using XLFit (equation 201: y=A+((B−A)/(1+((x/C)^D))), where A=bottom, B=top, C=IC50, and D=slope) with a floating top and bottom for curves. Binding IC50 values are shown in Table A and are presented in ranges, in which “+++”<100 nM, 100 nM≤“++”<3000 nM, and “+”≥3000 nM.

recombinant human PARP2 = recombinant human PARP2 (Homo sapiens, UniProt Q9UGN5); experiment: PARP2 fluorescence polarization binding assay; conditions: for IC50: binding IC50, GST-tagged PARP2 20 nM, PARPi-FL 3 nM; for inhibition at 10 µM: read-out: PARP2 % inh at 10 μM
Sequence of recombinant human PARP2 (Q9UGN5 whole entry): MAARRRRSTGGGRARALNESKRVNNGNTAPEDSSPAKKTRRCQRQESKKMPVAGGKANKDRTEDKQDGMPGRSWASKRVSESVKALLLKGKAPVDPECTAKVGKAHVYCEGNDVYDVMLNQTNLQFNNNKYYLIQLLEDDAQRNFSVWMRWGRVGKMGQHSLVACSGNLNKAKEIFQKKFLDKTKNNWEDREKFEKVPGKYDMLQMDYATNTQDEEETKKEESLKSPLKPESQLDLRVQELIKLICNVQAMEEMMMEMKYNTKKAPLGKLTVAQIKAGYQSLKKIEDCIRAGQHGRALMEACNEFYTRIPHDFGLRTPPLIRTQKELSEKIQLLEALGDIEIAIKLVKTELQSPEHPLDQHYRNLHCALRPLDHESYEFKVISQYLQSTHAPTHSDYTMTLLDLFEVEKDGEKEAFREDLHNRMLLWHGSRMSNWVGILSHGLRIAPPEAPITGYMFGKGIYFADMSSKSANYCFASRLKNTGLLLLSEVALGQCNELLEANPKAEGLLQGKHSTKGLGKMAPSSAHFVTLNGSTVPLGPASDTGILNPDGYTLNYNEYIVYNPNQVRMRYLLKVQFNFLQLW
Description: Compounds of the present disclosure were tested in a PARP2 fluorescence polarization binding assay at Pharmaron (Beijing, P.R. China). In this biochemical assay, binding of test compound to recombinant human PARP2 reduces the amount of binding of a fluorescent probe, and consequently reduces the detected level of fluorescence polarization. Test compound stock solutions were prepared in DMSO and then serially diluted into 10 concentrations by 3-fold dilution in a 384-well plate using a TECAN EVO200. Alternatively, a single concentration was prepared. 60 nL of each dilution was transferred to the plate using an Echo550 (Labcyte), and then 10 μL 40 nM GST-tagged PARP2 (BPS Bioscience, Cat #80502), diluted in assay buffer (50 mM Tris pH 8.0, 0.001% Triton X-100, 10 mM MgCl2, 150 mM NaCl), was added to the plate. After a centrifugation at 1000 rpm for 1 min, the assay plate was incubated for 30 min at RT. 10 μL 6 nM PARPi-FL (TOCRIS, Cat #6461), diluted using assay buffer, was then added to the plate. […] After a centrifugation at 1000 rpm for 1 min, the assay plate was incubated for 4 h at RT. Samples in each well were read using an Envision instrument (Perkin-Elmer; Ex=480 nm Em=FITC FP-P pol 535 nm & FITC FP-S pol 535 nm). […] Binding IC50 values were calculated using XLFit (equation 201: […])^D))), where A=bottom, B=top, C=IC50, and D=slope) with a floating top and bottom for curves.

[1] = system: DLD-1 BRCA2(−/−) colorectal adenocarcinoma cells; experiment: Cell viability assay (Cell Titer-Glo), DLD-1 BRCA2(−/−); assay type: cell-based; conditions: Homo sapiens, DLD-1, 168 h; 7 days incubation, 200 cells/well
Description: (§1) Compounds of the present disclosure were tested for their effects on the viability of cancer cells. DLD-1 wild-type and DLD-1 BRCA2(−/−) colorectal adenocarcinoma cells, an isogenic pair of cell lines differing in the presence and absence, respectively, of both BRCA2 alleles, were used. The cells were harvested during the logarithmic growth period, counted, and seeded at 50 cells/well for DLD-1 wild-type and 200 cells/well for DLD-1 BRCA2(−/−) in a 384-well cell culture plate. After seeding, cells were incubated at 37° C., 5% CO2 overnight. Cells were treated with serially diluted test compounds at 10 concentrations (e.g., from 1.5 nM-30 μM) for generation of dose response curves, or at a single concentration. The plate was further incubated for another 7 days in a humidified incubator at 37° C. and 5% CO2. Cell viability was assessed by luminescence measurement after addition of Cell Titer-Glo reagent (Promega, Madison, Wis.) according to the manufacturer's instructions. Cell viability IC50 values were calculated using XLFit, equation 201: y=A+((B−A)/(1+((x/C)^D))), where A=bottom, B=top, C=IC50, and D=slope. IC50 values are shown in Table B and are presented in ranges, in which “+++”<300 nM, 300 nM≤“++”<3000 nM, and “+”≥3000 nM. Values for percent inhibition at 10 μM are also shown in Table B and are presented in ranges, in which “***”≥67%, 33%≤“**”<67%, and “*”<33%. Effects of the test compounds on the viability of other cell lines such as MDA-MB-436, MDA-MB-231, SUM149PT, HCC1395, and UWB1.289 are determined in an analogous method.

[2] = system: DLD-1 wild-type colorectal adenocarcinoma cells; experiment: Cell viability assay (Cell Titer-Glo), DLD-1 wild-type; assay type: cell-based; conditions: Homo sapiens, DLD-1, 168 h, 7 days incubation; for inhibition at 10 µM: read-out: DLD-1 wild-type % inh at 10 μM; for IC50: 50 cells/well
Description: as §1

Sequence of PARP1 (P09874 whole entry): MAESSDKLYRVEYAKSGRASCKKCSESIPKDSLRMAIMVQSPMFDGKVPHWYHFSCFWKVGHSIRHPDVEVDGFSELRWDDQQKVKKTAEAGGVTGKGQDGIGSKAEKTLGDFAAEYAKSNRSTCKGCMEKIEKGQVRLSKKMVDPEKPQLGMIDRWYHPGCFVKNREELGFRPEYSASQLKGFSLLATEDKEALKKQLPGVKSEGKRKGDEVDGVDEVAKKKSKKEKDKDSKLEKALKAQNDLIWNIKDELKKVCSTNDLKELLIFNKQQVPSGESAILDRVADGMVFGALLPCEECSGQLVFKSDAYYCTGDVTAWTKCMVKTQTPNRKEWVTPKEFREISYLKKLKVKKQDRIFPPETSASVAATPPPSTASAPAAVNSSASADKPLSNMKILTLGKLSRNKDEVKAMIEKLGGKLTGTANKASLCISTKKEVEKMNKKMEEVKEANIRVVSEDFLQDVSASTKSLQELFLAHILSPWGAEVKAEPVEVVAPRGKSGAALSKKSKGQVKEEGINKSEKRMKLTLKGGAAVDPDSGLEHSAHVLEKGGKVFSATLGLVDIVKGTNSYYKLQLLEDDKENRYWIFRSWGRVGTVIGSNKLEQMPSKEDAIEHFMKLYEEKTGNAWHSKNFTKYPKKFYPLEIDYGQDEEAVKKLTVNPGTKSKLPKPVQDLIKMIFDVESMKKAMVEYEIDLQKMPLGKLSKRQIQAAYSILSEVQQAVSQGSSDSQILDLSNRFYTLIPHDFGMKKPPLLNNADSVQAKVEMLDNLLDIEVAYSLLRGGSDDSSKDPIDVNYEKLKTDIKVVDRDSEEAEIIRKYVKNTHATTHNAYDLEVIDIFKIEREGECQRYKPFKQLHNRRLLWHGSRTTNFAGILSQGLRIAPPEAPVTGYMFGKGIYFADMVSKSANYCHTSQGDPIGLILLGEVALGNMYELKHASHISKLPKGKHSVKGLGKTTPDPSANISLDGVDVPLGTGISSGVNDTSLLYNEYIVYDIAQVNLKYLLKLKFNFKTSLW

Compound	IC50 (PARP1)	IC50 (recombinant human PARP2)	inhibition at 10 µM (recombinant human PARP2)	IC50 [1]	inhibition at 10 µM [2]	IC50 [2]
CCn1c(=O)[nH]c2cc(CN3CC4(C3)CN(c3ccc(C(=O)NC)nc3)C4)ccc2c1=O [Compound 100, 5-{6-[(3-ethyl-2,4-dioxo-1,2,3,4-tetrahydroquinazolin-7-yl)methyl]-2,6-diazaspiro[3.3]heptan-2-yl}-N-methylpyridine-2-carboxamide hemiformate]	100 to 3000 nM	> 3000 nM	33 to 67%	> 3000 nM	< 33%	> 3000 nM
CCn1c(=O)[nH]c2c(F)c(CN3CCN(c4ccc(C(=O)NC)nc4C)CC3)ccc2c1=S [Compound 184, 5-(4-((3-ethyl-8-fluoro-2-oxo-4-thioxo-1,2,3,4-tetrahydroquinazolin-7-yl)methyl)piperazin-1-yl)-N,6-dimethylpicolinamide]	< 100 nM	> 3000 nM	33 to 67%	< 300 nM	33 to 67%	> 3000 nM
CCN1Cc2ccc(CN3CCN(c4ccc(C(=O)NC)nc4C)CC3)cc2NC1=O [Compound 202, 5-{4-[(3-ethyl-2-oxo-1,4-dihydroquinazolin-7-yl)methyl]piperazin-1-yl}-N,6-dimethylpyridine-2-carboxamide]	< 100 nM	–	33 to 67%	< 300 nM	< 33%	> 3000 nM
CCN1Cc2ccc(CN3CCN(c4ccc(F)cc4F)CC3)cc2NC1=O [Compound 225, 7-{[4-(2,4-difluorophenyl)piperazin-1-yl]methyl}-3-ethyl-1,4-dihydroquinazolin-2-one]	< 100 nM	–	33 to 67%	> 3000 nM	< 33%	> 3000 nM
CCn1c(=O)[nH]c2cc(CN3CCN(c4ccc(F)cc4F)CC3)ccc2c1=O [Compound 226, 7-{[4-(2,4-difluorophenyl)piperazin-1-yl]methyl}-3-ethyl-1H-quinazoline-2,4-dione formate]	< 100 nM	–	33 to 67%	> 3000 nM	< 33%	> 3000 nM
CCn1c(=O)[nH]c2cc(CN3CCN(c4ccc(C(=O)NC)cc4F)CC3)sc2c1=O [Compound 232]	< 100 nM	> 3000 nM	33 to 67%	> 3000 nM	< 33%	> 3000 nM
CCC(=O)c1ccc(N2CCN(Cc3cc4[nH]c(=O)n(CC)c(=O)c4s3)CC2)c(C)n1 [Compound 326, 3-ethyl-6-((4-(2-methyl-6-propionylpyridin-3-yl)piperazin-1-yl)methyl) thieno[3,2-d]pyrimidine-2,4(1H,3H)-dione formate]	< 100 nM	> 3000 nM	33 to 67%	> 3000 nM	< 33%	> 3000 nM
CCn1c(=O)[nH]c2cc(CN3CCN(c4cnc5c(NC)nccc5c4)CC3)sc2c1=O [Compound 360, 3-ethyl-6-((4-(8-(methylamino)-1,7-naphthyridin-3-yl)piperazin-1-yl)methyl)thieno[3,2-d]pyrimidine-2,4(1H,3H)-dione formate]	< 100 nM	> 3000 nM	33 to 67%	> 3000 nM	33 to 67%	> 3000 nM
CCn1c(=O)[nH]c2cc(CN3CCC(c4ccc(C(=O)NC)nc4C)CC3)ccc2c1=S [Compound 498, 5-(1-((3-ethyl-2-oxo-4-thioxo-1,2,3,4-tetrahydroquinazolin-7-yl)methyl)piperidin-4-yl)-N,6-dimethylpicolinamide formate]	< 100 nM	> 3000 nM	33 to 67%	> 3000 nM	33 to 67%	> 3000 nM
CCn1c(=O)[nH]c2cc(CN3CCN(c4ccc(C(=O)NC)nc4C)CC3)cc(Br)c2c1=S [Compound 501, 5-(4-((5-bromo-3-ethyl-2-oxo-4-thioxo-1,2,3,4-tetrahydroquinazolin-7-yl)methyl)piperazin-1-yl)-N,6-dimethylpicolinamide formate]	< 100 nM	> 3000 nM	33 to 67%	300 to 3000 nM	< 33%	> 3000 nM
CCn1c(=O)[nH]c2cc(CN3CCN(c4ccc(C(=O)NC)nc4C)CC3)c(Br)cc2c1=S [Compound 504, 5-(4-((6-bromo-3-ethyl-2-oxo-4-thioxo-1,2,3,4-tetrahydroquinazolin-7-yl)methyl)piperazin-1-yl)-N,6-dimethylpicolinamide]	100 to 3000 nM	> 3000 nM	33 to 67%	300 to 3000 nM	< 33%	> 3000 nM
CCn1c(=O)[nH]c2cc(CN3CCN(c4ccc(C(=O)NC)nc4C)CC3)c(C#N)cc2c1=S [Compound 505, 5-(4-((6-cyano-3-ethyl-2-oxo-4-thioxo-1,2,3,4-tetrahydroquinazolin-7-yl)methyl)piperazin-1-yl)-N,6-dimethylpicolinamide trifluoroacetate]	< 100 nM	> 3000 nM	33 to 67%	300 to 3000 nM	< 33%	> 3000 nM
CCn1c(=O)[nH]c2cc(C=C3CCN(c4ccc(C(=O)NC)nc4C)CC3)ccc2c1=S [Compound 507, 5-(4-((3-ethyl-2-oxo-4-thioxo-1,2,3,4-tetrahydroquinazolin-7-yl)methylene)piperidin-1-yl)-N,6-dimethylpicolinamide]	< 100 nM	> 3000 nM	33 to 67%	> 3000 nM	> 67%	> 3000 nM
CCn1c(=O)[nH]c2cc(CN3CCN(c4ccc(C(N)=O)nc4C)CC3)sc2c1=O [Compound 516, 5-(4-((3-ethyl-2,4-dioxo-1,2,3,4-tetrahydrothieno[3,2-d]pyrimidin-6-yl)methyl)piperazin-1-yl)-6-methylpicolinamide]	< 100 nM	> 3000 nM	33 to 67%	> 3000 nM	< 33%	> 3000 nM

Source: patent US20240132449A1, “HETEROCYCLIC COMPOUNDS AND METHODS OF USE THEREOF” (1cBio, Inc., priority 2022, published 2024)
